Values quoted from earlier work, collected in US20230310447A1, “METHODS OF TREATING AGE-RELATED COGNITIVE DECLINE” (Woolsey Pharmaceuticals, Inc., priority 2020, published 2023).

What was measured:
[1] = 1-hydroxy (M3) metabolite, in vivo; Shibuya 2001
[2] = tested on: memory in aging rats; conditions: eighteen-month old rats; 0.1875 or 0.3750 mg per day, single daily injection; radial maze

| Molecule | half-life [1] | working memory [2] |
| --- | --- | --- |
| O=S(=O)(c1cccc2c(O)nccc12)N1CCCNCC1 [hydroxyfasudil] | about 8 hours |  |
| hydroxyfasudil |  | improvements in working memory |
